Here are results for two compounds from article PMC5458211, “Mitochondrial VDAC1-based peptides: Attacking oncogenic properties in glioblastoma” (Oncotarget, 2017).

The subject of test [1] is U-87MG intracranial xenograft tumors. Nature of the test: U-87MG intracranial-orthotopic xenograft, tumor volume by MRI. The test is classed as in vivo, human U-87MG in nude mice. The procedure: B. U-87MG cells (2×10^5) were incubated for 12 h with the indicated concentrations of DMSO, Retro-Tf-D-LP4 peptide (Pep), or Retro-Tf-D-LP4 encapsulated in PLGA nanoparticles (PLGA-Pep). Samples of Retro-Tf-D-LP4 encapsulated in PLGA nanoparticles were centrifuged (15000g, 5 min) to separate the supernatant (Sup), containing free peptide, and the pellet, containing encapsulated Retro-Tf-D-LP4 peptide. Cell death was analyzed by PI staining and FACS analysis. C. Graphical representation of the orthotopic animal experiment. D. MRI imaging of brains 29 days post-intravenal treatment start with DMSO (1.05%), Retro-Tf-D-LP4 (10 mg/kg) encapsulated in PLGA nanoparticles or Tf-D-Retro-LP4 peptide (10 mg/Kg), as described in Materials and Methods available online in Supplemental information. E. Calculated tumor volumes after 20 (dark grey bars) and 29 (light grey bars) days post-treatment start. Results = mean ± SE (n = 6) (* p<0.05, *** p<0.001). F. Kaplan-Meier survival curves showing statistically significant differences in survival curves between the PBS/DMSO and Retro-Tf-D-LP4 treated mice. Cumulative Kaplan-Meier survival curves of control mice (red line), Retro-Tf-D-LP4 peptide (10mg/kg) encapsulated in PGLA nanoparticles (black line, ** p=0.006) or Retro-Tf-D-LP4 peptide (10 mg/kg, pink line, *** p=0.0003). The arrow indicates the end of the peptide treatment (day 46).
For the intracranial-orthotopic xenograft mouse model, U-87MG cells (8×10^4) were engrafted into a nude mouse brain using a stereotactic device. Forty eight hours after surgery, mice were randomized into three groups (6 animals/group) and treated every third day with DMSO (1.44%), Retro-Tf-D-LP4 (10mg/Kg) or Retro-Tf-D-LP4 (10mg/Kg) encapsulated by PLGA. Mice were subjected to MRI, sacrificed; brains were excised and processed for IHC. Tumor volume was analyzed using VivoQuant 2.10 software.
PLGA encapsulation of the VDAC1-based minutes using an UltraMicroPump III (World Precision peptide Retro-Tf-D-LP4 Instruments, Sarasota, FL). After infusion, the needle was left in place for 1 minute before slow withdrawal. The burr […]
100% DMSO and then diluted 20-fold with sterile DDW into three groups (6 animals/group) and treated every to reach a concentration of 25 mg/ml in a final DMSO third day with DMSO (1.44%), Retro-Tf-D-LP4 (10 concentration of 5%. PLGA (50 mg) was dissolved in mg/kg) or Retro-Tf-D-LP4 (10 mg/kg) encapsulated by acetone (1 ml). […] Tumor volume was analyzed using VivoQuant 2.10 10 ml of aqueous solution containing 1% PVA (w/v). […]
of the experiments, the mice were sacrificed, tumors were IHC of tumor tissue sections excised and ex vivo weight was determined. […]
(In general: In xenograft studies the graft and the host belong to different species.)

The subject of the next test is SH-SY5Y cells. Kind of test: Apoptosis by acridine orange/ethidium bromide staining, SH-SY5Y. The test is classed as cell-based, human. The conditions noted are these: 3 h, Suppl Fig 2B. The procedure: […] The cells were then trypsinized, centrifuged (1500xg, 5 min), washed with PBS and analyzed for cell death using propidium iodide (PI) staining and flow cytometer (Beckton-Dickinson, San Jose, CA) and BD CellQuest Pro software. Apoptotic cell death was also analyzed by PI and annexin V-FITC staining, and by acridine orange and ethidium bromide staining and light microscopy (Olympus LX2-KSP).
Supplementary Figure 2: Mode of action of VDAC1-based peptides. […]
detachment. SH-SY5Y cells (4×10^4/ml) were grown on cover slips, transfected with plasmid pEGFP-HK-I and after 24 h, were incubated […]
The final DMSO concentration in control and peptide-treated cells was 0.07%. Fixed cells were stained with DAPI and visualized by confocal microscopy (Olympus 1X81). Arrows indicate cells […]
showing diffusion of HK-I-GFP. B-C. […] B. SH-SY5Y cells were treated with the indicated […]
Arrows and arrowheads indicate cells with membrane blebbing (early apoptotic state) and late apoptotic states, respectively. C. Morphological analysis of apoptosis by electron microscopy (EM). For transmission EM, U-87MG cells (1.6 x10^6 /ml) were incubated with the indicated concentrations of D-ΔN-Ter-Antp peptide or DMSO (0.3% final concentration) for 6 h in serum-free medium. […]

Turning to `CC[C@H](C)[C@H](NC(=O)[C@H](Cc1ccc(O)cc1)NC(=O)[C@@H]1CCCN1C(=O)[C@H](CCCNC(=N)N)NC(=O)[C@H](Cc1c[nH]cn1)NC(=O)[C@H](CO)NC(=O)[C@H](Cc1c[nH]c2ccccc12)NC(=O)[C@@H](NC(=O)[C@H](Cc1c[nH]c2ccccc12)NC(=O)[C@H](CCC(=O)O)NC(=O)[C@@H](CCCCN)NC(=O)[C@@H](CCCCN)NC(=O)[C@@H](CC(C)C)NC(=O)[C@@H](CCC(=O)O)NC(=O)[C@H](NC(=O)[C@@H](C)NC(=O)[C@H](NC(=O)[C@@H](CC(N)=O)NC(=O)[C@@H](CC(C)C)NC(=O)[C@@H](C)NC(=O)[C@@H](Cc1c[nH]c2ccccc12)NC(=O)[C@H](NC(=O)[C@@H](C)NC(=O)CNC(=O)[C@@H](CC(N)=O)NC(=O)[C@@H](CO)NC(=O)[C@@H](CC(N)=O)NC(=O)[C@H](CCCCN)NC(=O)[C@H](Cc1c[nH]c2ccccc12)NC(=O)[C@@H](NC(=O)[C@H](Cc1c[nH]c2ccccc12)NC(=O)[C@@H](N)CCCCN)[C@@H](C)O)[C@H](C)O)C(C)C)[C@H](C)O)[C@@H](C)O)C(=O)N[C@@H](C)C(=O)N[C@@H](Cc1c[nH]cn1)C(=O)O` [Retro-Tf-D-LP4], the “decrease in orthotopic xenograft tumor volume, day 20” value in test [1] (10 mg/kg i.v., every third day, 20 days after start of treatment, MRI, n = 6) amounted to 60%. The “decrease in orthotopic xenograft tumor volume, day 29” value in test [1] (10 mg/kg i.v., every third day, 29 days after start of treatment, MRI, n = 6) amounted to 90%. Moreover, the “free vs PLGA-encapsulated peptide, effectiveness” value in test [1] (intracranial model, tumor size and survival) is “more effective both in reducing tumor size and in prolonging mice survival”. Further, the “reduction of tumor volume, maximum (Discussion)” value in test [1] (intracranial-orthotopic xenograft, i.v., free peptide) is on record as “up to 90%”.

Take `CC[C@H](C)[C@H](NC(=O)[C@H](C)NC(=O)[C@@H](N)Cc1c[nH]cn1)C(=O)N[C@@H](Cc1ccc(O)cc1)C(=O)N1CCC[C@H]1C(=O)N[C@@H](CCCNC(=N)N)C(=O)N[C@@H](Cc1c[nH]cn1)C(=O)N[C@@H](CO)C(=O)N[C@@H](Cc1c[nH]c2ccccc12)C(=O)N[C@H](C(=O)N[C@@H](Cc1c[nH]c2ccccc12)C(=O)N[C@@H](CCC(=O)O)C(=O)N[C@H](CCCCN)C(=O)N[C@H](CCCCN)C(=O)N[C@H](CC(C)C)C(=O)N[C@H](CCC(=O)O)C(=O)N[C@@H](C(=O)N[C@H](C)C(=O)N[C@@H](C(=O)N[C@H](CC(N)=O)C(=O)N[C@H](CC(C)C)C(=O)N[C@H](C)C(=O)N[C@H](Cc1c[nH]c2ccccc12)C(=O)N[C@@H](C(=O)N[C@H](C)C(=O)NCC(=O)N[C@H](CC(N)=O)C(=O)N[C@H](CO)C(=O)N[C@H](CC(N)=O)C(=O)N[C@@H](CCCCN)C(=O)N[C@@H](Cc1c[nH]c2ccccc12)C(=O)N[C@H](C(=O)N[C@@H](Cc1c[nH]c2ccccc12)C(=O)N[C@@H](CCCCN)C(=O)O)[C@@H](C)O)[C@H](C)O)C(C)C)[C@H](C)O)[C@@H](C)O` [Tf-D-LP4]: in the test on SH-SY5Y cells, the “apoptosis induction, SH-SY5Y” value is given as “induce apoptosis”.
